Data published in PubChem BioAssay (NCI).
“And” between values parts separate entries of the source, which are not always exact repeats. Identical values can stand only once.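 Each compound was tested at five concentrations against cells in 96-well plates for 48 hours. Abbreviation: GI50, concentration required for 50% inhibition of growth. TGI is the concentration that stops growth completely.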

Test system: MDA-MB-468 breast
Experiment: NCI-60 cell line screen, 48 h

| Structure (SMILES) | GI50 | TGI |
| --- | --- | --- |
| Cc1nc2ccccc2c(/C=C/c2ccc(F)cc2)c1C(=O)/C=C/c1ccccc1 | 1.86 µM | 4.26 µM |
| NC(=O)c1c(NC(=O)c2ccc(C(F)(F)F)cc2Cl)sc2c1CCC(=O)C2 | 0.277 µM | 1.04 µM |
| CCCCCCCCCCCCNCCCc1ccccc1 | 1.54 µM | 3.17 µM |
| Nc1ncnc2occ(-c3ccc(NC(=O)Nc4cccc(C(F)(F)F)c4)cc3)c12 | 3.62 µM | 11.8 µM |
| COc1ccc(C(=O)c2no[n+]([O-])c2C(=O)c2ccc(OC)cc2)cc1 | 1.37 µM | 2.78 µM |
| Cc1nc2ccccc2c(/C=C/c2ccc(C(F)(F)F)cc2)c1C(=O)/C=C/c1ccccc1 | 1.78 µM | 3.7 µM |
| C=CCn1c(C)nc2cc(Nc3nc(N4CCCC4)nc4nc[nH]c34)ccc21 | > 100 µM | > 100 µM |
| COc1cccc(/C=C2\COc3ccc(O)c(O)c3C2=O)c1OC | 1.67 µM | 3.91 µM |
| O=NN(CC(=O)NNc1ccccc1)CC(=O)NNc1ccccc1 | > 78.3 µM | > 100 µM |
| O=C1c2c[n+](Cc3ccccc3)ccc2-c2nc3ccccc3c3ccnc1c23 | 0.389 µM | 1.02 µM |
| O=C(Nc1ccc(Br)cc1)c1cc(Br)ccc1O | 0.328 µM and 0.722 µM | 1.68 µM and 3.57 µM |
| CC(=O)OC1C(C)OC(Oc2c(-c3ccc(O)cc3)oc3cc(O)cc(O)c3c2=O)C(O)C1OC(C)=O (configuration not stated) | 17.8 µM | 42.8 µM |
| Cc1cc(N)c2cc(NC(=O)/C=C\c3ccccc3Cl)ccc2n1 | 0.398 µM | 1.48 µM |
| CC(C)(C)c1ccc(OCCCCCCCN2CCNCC2)cc1 | 1.84 µM | 3.58 µM |
| COc1cc2c(cc1OCCCN1CCN(CCCOc3cc4c(cc3OC)C(=O)N3C[C@H](F)C[C@H]3C=N4)CC1)N=C[C@@H]1C[C@@H](F)CN1C2=O | < 0.01 µM | 0.0397 µM |
| O=C(Nc1cccc2[nH]c(C(F)(F)F)nc12)c1ccc(Br)cc1F | 2.4 µM | 7.05 µM |
| COC(=O)c1ccc(C)cc1C1CN=NC12Cc1c(C)cccc1C2=O (configuration not stated) | 30.7 µM | > 100 µM |
| O=C(NCCc1nccs1)c1cnc2c(S)cccc2c1 | 4.13 µM | 39 µM |
| CCn1cnc(C[C@H](NC(=O)[C@@H](NC(=O)Nc2cc(C(F)(F)F)cc(C(F)(F)F)c2)C(C)(C)C)C(=O)OC)c1 | 5.18 µM | > 10 µM |
| COc1cc(/C=C/C(=O)c2cccc(-n3cc(-c4ccccc4)[nH]c3=O)c2)ccc1O | 3.43 µM | 22.2 µM |
| COc1ccc(/C(=N/O)c2cc(F)c(F)c(OC)c2F)cc1O | 0.552 µM | > 100 µM |
